Source: patent publication US9447385B2, “Butanol dehydrogenase enzyme from the bacterium Achromobacter xylosoxidans” (BUTAMAX ADVANCED BIOFUELS LLC, priority 2008, dated 2016)
Like-named read-outs stand apart in the source and are kept apart here.

How the values were obtained:
[1] = test system: A. xylosoxidans butanol dehydrogenase; conditions: alcohol substrate (oxidation); 35° C., TRIS buffer pH 8.5, 3 mM NAD+; crude enzyme from A. xylosoxidans
Protocol: Reactions with alcohol substrates were performed at 35° C. in TRIS buffer, pH 8.5, containing 3 mM NAD^+ and varying concentrations of alcohol. Reactions with ketone or aldehyde substrates were performed at 35° C. with 50 mM MES buffer, pH 6.0, 200 μM NADH and varying concentrations of the ketone or aldehyde. Crude enzyme preparations were used, obtained either from A. xylosoxidans or recombinant E. coli strain Mach1/pTrc99a::sadB (described in Example 3 below).

[2] = test system: butanol dehydrogenase from A. xylosoxidans; test: Activity stain on non-denaturing polyacrylamide gel (MTT/PMS coupled); assay type: biochemical, Achromobacter xylosoxidans; conditions: NAD+, MTT, PMS
From the text: The purified enzyme and molecular weight standards were subjected to electrophoresis using non-denaturing polyacrylamide gels (8-16% Tris-Glycine gradient gel, Invitrogen). After electrophoresis, the gels were removed and stained for protein (Simply Blue Protein Stain, Invitrogen) or stained for activity by coupling the conversion of 1-butanol plus NAD^+ to butyraldehyde plus NADH with the conversion of 3 [4,5-dimethylthiazol-2-yl]-2,5-diphenyltetrazolium bromide (MTT) to a deeply colored formazan, using phenazine methosulfate (PMS) as mediator (Tang et al., J. Bacteriol. 140, 182 (1997)). The activity solution contained 0.5 mg PMS, 5 mg MTT, 20 mg NAD^+ and 1 mL of 1-butanol in a total volume of 25 mL.

[3] = test system: A. xylosoxidans butanol dehydrogenase; test: Kinetic characterization of butanol dehydrogenase, reduction of ketone or aldehyde substrates; assay type: biochemical, Achromobacter xylosoxidans; conditions: 35° C., 50 mM MES pH 6.0, 200 μM NADH
From the text: The secondary alcohol dehydrogenase (sadB) from Achromobacter xylosoxidans was cloned into the vector pTrc99a (Amann et al., Gene 69(2):301-315 (1988)). The coding region (SEQ ID NO: 1) was amplified using standard conditions from A. xylosoxidans genomic DNA, prepared using a Gentra Puregene kit (Gentra Systems, Inc., Minneapolis, Minn.; catalog number D-5500A) following the recommended protocol for gram negative organisms using forward and reverse primers N473 and N469 (SEQ ID NOs: 24 and 23). The PCR product was TOPO-Blunt cloned into pCR4 BLUNT (Invitrogen) to produce pCR4Blunt::sadB, which was used to transform E. coli Mach-1 cells. Plasmid DNA was subsequently isolated from four clones, and the sequence verified. The plasmid was then digested with EcoRI, releasing the sadB fragment, which was ligated with EcoRI-digested pTrc99a to generate pTrc99a::sadB. The E. coli Mach 1 cells were transformed with the plasmid and the resulting transformant was named Mach1/pTrc99a::sadB.

[4] = ketone or aldehyde substrate (reduction), crude enzyme from A. xylosoxidans
[5] = aldehyde substrate (reduction), crude enzyme from E. coli strain Mach1/pTrc99a

Row | Molecule | Km [1] [µM] | Vmax [1] [µmol/min] | activity staining of the enzyme band with the alcohol as substrate [2] | Km [3, 4] [µM] | Vmax [3, 4] [µmol/min] | further results
1 | 1-Butanol | 4600 | 0.02 |  |  |  | 
2 | CCC(C)O (stereo not drawn) [2-Butanol] | 300 | 0.22 | active |  |  | 
3 | CCC(C)=O [2-Butanone] |  |  |  | 500 | 0.35 | 
4 | CCCC=O [Butyraldehyde] |  |  |  | 7300 | 0.67 | 
5 | CC(C)C=O [Isobutyraldehyde] |  |  |  |  |  | Km [3, 5]: 1900 µM; Vmax [3, 5]: 1.1 µmol/min
6 | CC(C)CO [isobutanol] |  |  | active |  |  | 
